Where two headings read alike, the source gives them in different places.
Key:
[1] = test system: MDA-MB-231 cells; test: Soft agar clonogenic (colony outgrowth) assay, anti-proliferative IC50; format: cell-based; details: Homo sapiens
Method: Cells were plated in soft agar in 24-well plates according to the assay introduced by Hamburger & Salmon (Primary bioassay of human tumor stem cells, Science, 1977, 197:461-463). Each test well contained three layers of equal volume: 2 layers of semi-solid medium (bottom and top layer), and one layer of medium supernatant, with or without test compound (drug overlay on top of the semi-solid medium layer).
The bottom agar layer consisted of 0.2 mL/well IMDM supplemented with 20% (v/v) fetal calf serum, penicillin/streptomycin 50 μg/mL and 0.75% (w/v) bacto agar (BD Biosciences, #214050). For the top agar layer, 10′000-20′000 cells were added to 0.2 mL of the same IMDM medium supplemented with 0.35% (w/v) bacto agar and plated onto the bottom layer. For the drug overlay, the test compounds were applied by continuous exposure in 0.2 mL IMDM medium on top of the two agar layers. The drug overlay was added directly after seeding the cells as 3-fold concentrated solution and changed carefully every 3-4 days. Every 24-well plate contained untreated controls and samples in duplicates. Cultures were incubated at 37° C. and 5% CO2 for 6-14 days. 24 hours prior to evaluation, vital colonies were stained with a sterile aqueous solution of 2-(4-iodophenyl)-3-(4-nitrophenyl)-5-phenyltetrazolium chloride (Sigma, #I-8377, 1 mg/mL, 100 μL/well) (Alley M C et al., Life Sci. 1982, 31:3071-3078) and were counted with an automatic image analysis system (GelCount, Oxford Optronix). IC50-values were determined by plotting compound concentrations versus relative colony counts. Relative drug effects were expressed by the maximum effect of the mean number of colonies in the treated wells in comparison to the control wells.

[2] = test system: Jurkat-GFP cells; test: Apoptosis assay (EGFP/FACS) in Jurkat-GFP cells; format: cell-based, human; details: data not shown; for EC50: Homo sapiens, read-out: EC50, induction of apoptosis; for maximal apoptosis induction: maximum of dose-response curve
Method: The following human cell line was used: MDA-MB-231 (ATCC: HTB-26). In addition the following enhanced green fluorescent protein (EGFP)-transfected human cell lines were used: NCI-H460 (ATCC: HTB-177) (H460GFP) and Jurkat (ATCC: TIB-152) (JurkatGFP). NCI-H460 and Jurkat cell lines were cultured in RPMI-1640 tissue culture medium containing 10% (v/v) fetal calf serum, 2 mM glutamine, non-essential amino acids and 50 μg/ml penicillin/streptomycin (Complete medium) (Sigma, Buchs, Switzerland). The MDA-MB-231 cell line was cultured in Dulbecco's Modified Eagle Medium (DMEM) (high glucose) tissue culture medium containing 10% (v/v) fetal calf serum, 1 mM sodium pyruvate and 50 μg/ml penicillin/streptomycin (i.e. Complete Medium) (Sigma, Buchs, Switzerland).
General growth conditions were 37° C. and 7.5% CO2. For the microtubule destabilization assay cell lines were cultured in 5% CO2.
The assays were performed in commercially available sterile 96-well U-bottom or 24-well flat-bottom tissue culture plates (Falcon). A defined number of test cells expressing enhanced green fluorescent protein (EGFP) (H460 cells: 600 μl of 30′000 cells/ml in 24-well flat-bottom plates, Jurkat cells: 600 μl of 400′000 cells/ml in […]) were plated either 24 hours before treatment in case of the adherent H460 cell line, or one hour prior to the start of the treatment for Jurkat cells. Between seeding and addition of compounds, the cells were incubated at 37° C. under 7.5% CO2. Subsequently, BAL27862 and eribulin (Halaven®, Ch.-B. 60363CRN1, Eisai) which were dissolved in Complete Medium were both added from stock solutions at 5× the final concentration in 200 μl to the wells, resulting in a final well-volume of 1 ml. The test plates were then incubated for the indicated time. For time course experiments with Jurkat cells, the 96-well plates were removed shortly at the indicated time from the incubator, shaken in order to suspend the cells and an aliquot of 200 μl cell suspension was then transferred to a 96-well U-bottom plate and measured immediately on a fluorescence-activated cell sorting (FACS)-Canto II with a high through-put sampler (HTS)-module. […]
The quantification of the relative amount of apoptotic cells within a cell population was determined according to the Reference of Strebel et al., Cytometry 2001, 43(2), Green Fluorescent Protein as Novel Tool to Measure Apoptosis and Necrosis). By monitoring the EGFP fluorescence activity excited at […] and measured at […] on a FACS-Cantoll™, it is possible to distinguish between proliferating cells, apoptotic cells and necrotic cells within the same cell population. […] As a readout the relative abundance of the cells belonging to M2 (apoptotic population) were expressed.

[3] = test system: HCC1395; test: Soft agar assay, IC50 of single agents in HCC1395; format: cell-based; details: Homo sapiens
Method: (§1) Example 5: Determination of Drug Interaction in Cell Lines by Soft Agar Assay
(§2) The combination of BAL101553 with eribulin was tested in various cell lines by soft agar assay. Table 1 and Table 2 present the results according to coefficient of drug interaction based on colony number (Table 1) and total area of colonies (Table 2). In both cases the coefficient of drug interaction is calculated according to the formula described in Zhao et al., J Intercult Ethnopharmacol. 2014, 3(2): 68-72): (combination/untreated)/[(compound1/untreated)×(compound2/untreated)]

[4] = test system: MiaPaCa2; test: Soft agar assay, IC50 of single agents in MiaPaCa2; format: cell-based; details: Homo sapiens, MIA PaCa-2
Method: as §1, §2

[5] = read-out: IC50 values in soft agar assay
[6] = soft agar clonogenic assay, data not shown, read-out: anti-proliferative IC50

SMILES | IC50 [1, 5] [nM] | IC50 [1, 6] [nM] | EC50 [2] [nM] | maximal apoptosis induction [2] | IC50 [3] [nM] | IC50 [4] [nM]
N#CCCNc1nonc1-c1nc2ccccc2n1CC(=O)c1ccc(N)cc1 [BAL27862, 3-(4-{1-[2-(4-Amino-phenyl)-2-oxo-ethyl]-1H-benzoimidazol-2-yl}-furazan-3-ylamino)-propionitrile] | 12 | 12 | 15 | 70-80% | 10 | 9
C=C1C[C@@H]2CC[C@@]34C[C@H]5O[C@H]6[C@@H](O3)[C@H]3O[C@H](CC[C@@H]3O[C@H]6[C@H]5O4)CC(=O)C[C@@H]3[C@@H](OC)[C@@H](C[C@H](O)CN)O[C@H]3C[C@H]3O[C@@H](CC[C@@H]1O2)C[C@@H](C)C3=C.CS(=O)(=O)O [Eribulin, (2R, 3R, 3aS, 7R, 8aS, 9S, 10aR, 11S, 12R, 13aR, 13bS, 15S, 18S, 21S, 24S, 26R, 28R, 29aS)-2-[(2S)-3-Amino-2-hydroxypropyl]-3-methoxy-26-methyl-20,27-dimethylidenehexacosahydro-11,15:18,21:24,28-triepoxy-7,9-ethano-12,15-methano-9H,15H-furo[3,2-i]furo[2′,3′:5,6]pyrano[4,3-b][1,4]dioxacyclopentacosin-5(4H)-one methanesulfonate (salt)] | 0.111 | 0.1 | 0.8 | about 70% | 0.5 | 0.5
